Tests used:
Type in all cases: in vivo
soybean (Glycine max) = assay: Test C pre/postemergence; details: for Plant response rating (scale of 0 to 100), Soybean / Soybean plant response rating: Postemergence; for Soybean plant response rating: 125 g ai/ha, scale 0 to 100 (0 no effect, 100 complete control); for Plant response rating, Soybean: Preemergence, scale 0 to 100, 0 no effect, 100 complete control
How it was run: (§1)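 Test compounds, formulated in a non-phytotoxic solvent mix with surfactant, were applied to freshly planted seeds and, at the same time, to emerged plants at 1- to 4-leaf stage (2 to 18 cm). After 12 to 14 days in the greenhouse, response was scored visually versus controls, 0 = no effect, 100 = complete control.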

[1] = system: johnsongrass (Sorghum halepense); assay: Test C pre/postemergence; details: for Plant response rating (scale of 0 to 100), Johnsongrass / Johnsongrass plant response rating: Postemergence; for Johnsongrass plant response rating: scale 0 to 100 (0 no effect, 100 complete control); for Plant response rating, Johnsongrass: Preemergence
How it was run: as §1

[2] = system: lambsquarters (Chenopodium album); assay: Test C pre/postemergence; details: for Plant response rating (scale of 0 to 100), Lambsquarters / Lambsquarters plant response rating: Postemergence; for Lambsquarters plant response rating: scale 0 to 100 (0 no effect, 100 complete control); for Plant response rating, Lambsquarters: Preemergence
How it was run: as §1

[3] = system: bermudagrass (Cynodon dactylon); assay: Test C pre/postemergence; details: for Plant response rating (scale of 0 to 100), Bermudagrass / Bermudagrass plant response rating: Postemergence; for Bermudagrass plant response rating: scale 0 to 100 (0 no effect, 100 complete control); for Plant response rating, Bermudagrass: Preemergence
How it was run: as §1

[4] = system: velvetleaf (Abutilon theophrasti); assay: Test A pre/postemergence
How it was run: (§2)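 Pre/post greenhouse screen; loam/sand soil; solvent + surfactant formulation; pre = directed soil spray at planting, post = 1–2 leaf plants, 2–10 cm; ~10 d; visual 0–100 rating vs untreated.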

[5] = system: barnyardgrass (Echinochloa crus-galli); assay: Test A pre/postemergence
How it was run: as §2

[6] = system: giant foxtail (Setaria faberi); assay: Test A pre/postemergence
How it was run: as §2

[7] = system: crabgrass (Digitaria sanguinalis); assay: Test A pre/postemergence
How it was run: as §2

[8] = system: morningglory (Ipomoea spp.); assay: Test A pre/postemergence
How it was run: as §2

[9] = system: redroot pigweed (Amaranthus retroflexus); assay: Test A pre/postemergence
How it was run: as §2

[10] = system: chickweed (Stellaria media); assay: Test C postemergence
How it was run: as §1

[11] = 16 g ai/ha, scale 0 to 100, 0 no effect, 100 complete control
[12] = 31 g ai/ha, scale 0 to 100, 0 no effect, 100 complete control
[13] = 62 g ai/ha, scale 0 to 100, 0 no effect, 100 complete control
[14] = Postemergence, 125 g ai/ha, 0 to 100 scale (0 no effect, 100 complete control)
[15] = Postemergence, 500 g ai/ha, 0 to 100 scale (0 no effect, 100 complete control)
[16] = Preemergence, 125 g ai/ha, 0 to 100 scale where 0 is no effect and 100 is complete control, approximately ten days
[17] = Preemergence, 500 g ai/ha, 0 to 100 scale where 0 is no effect and 100 is complete control, approximately ten days

## Nc1nc(-c2ccc(Cl)cc2)nc(C(=O)[O-])c1Cl.[Na+] [Compound 117]
Soybean (Glycine max); 16 g ai/ha
  Plant response rating (scale of 0 to 100), Soybean: 100
  Plant response rating, Soybean: 85
Soybean (Glycine max); 31 g ai/ha
  Plant response rating (scale of 0 to 100), Soybean: 100
  Plant response rating, Soybean: 100
Soybean (Glycine max); 62 g ai/ha
  Plant response rating (scale of 0 to 100), Soybean: 100
  Plant response rating, Soybean: 100
Soybean (Glycine max)
  Soybean plant response rating: 100
[1]; 16 g ai/ha
  Plant response rating (scale of 0 to 100), Johnsongrass: 10
[1]; 31 g ai/ha
  Plant response rating (scale of 0 to 100), Johnsongrass: 50
[1]; 62 g ai/ha
  Plant response rating (scale of 0 to 100), Johnsongrass: 50
[1]; 125 g ai/ha
  Johnsongrass plant response rating: 50
[1]; [11]
  Plant response rating, Johnsongrass: 0
[1]; [12]
  Plant response rating, Johnsongrass: 35
[1]; [13]
  Plant response rating, Johnsongrass: 60
[1]; 125 g ai/ha, scale 0 to 100
  Plant response rating, Johnsongrass: 70
[2]; 16 g ai/ha
  Plant response rating (scale of 0 to 100), Lambsquarters: 95
[2]; 31 g ai/ha
  Plant response rating (scale of 0 to 100), Lambsquarters: 95
[2]; 62 g ai/ha
  Plant response rating (scale of 0 to 100), Lambsquarters: 95
[2]; 125 g ai/ha
  Lambsquarters plant response rating: 95
[2]; [11]
  Plant response rating, Lambsquarters: 20
[2]; [12]
  Plant response rating, Lambsquarters: 100
[2]; [13]
  Plant response rating, Lambsquarters: 100
[2]; 125 g ai/ha, scale 0 to 100
  Plant response rating, Lambsquarters: 100
[3]; 16 g ai/ha
  Plant response rating (scale of 0 to 100), Bermudagrass: 60
[3]; 31 g ai/ha
  Plant response rating (scale of 0 to 100), Bermudagrass: 65
[3]; 62 g ai/ha
  Bermudagrass plant response rating: 85
[3]; 125 g ai/ha
  Bermudagrass plant response rating: 90
[3]; [11]
  Plant response rating, Bermudagrass: 0
[3]; [12]
  Plant response rating, Bermudagrass: 0
[3]; [13]
  Plant response rating, Bermudagrass: 30
[3]; 125 g ai/ha, scale 0 to 100
  Plant response rating, Bermudagrass: 65
[4]; [14]
  Plant response rating, Velvetleaf: 100
[4]; [15]
  Plant response rating, Velvetleaf: 100
[4]; [16]
  Plant response rating, Velvetleaf: 55
[4]; [17]
  Plant response rating, Velvetleaf: 100
[5]; [14]
  Plant response rating, Barnyardgrass: 85
[5]; [15]
  Plant response rating, Barnyardgrass: 90
[5]; [16]
  Plant response rating, Barnyardgrass: 25
[5]; [17]
  Plant response rating, Barnyardgrass: 85
[6]; [14]
  Plant response rating, Foxtail, Giant: 80
[6]; [15]
  Plant response rating, Foxtail, Giant: 90
[6]; [16]
  Plant response rating, Foxtail, Giant: 50
[6]; [17]
  Plant response rating, Foxtail, Giant: 85
[7]; [14]
  Plant response rating, Crabgrass: 75
[7]; [15]
  Plant response rating, Crabgrass: 90
[7]; [16]
  Plant response rating, Crabgrass: 45
[7]; [17]
  Plant response rating, Crabgrass: 75
[8]; [14]
  Plant response rating, Morningglory: 90
[8]; [15]
  Plant response rating, Morningglory: 90
[8]; [16]
  Plant response rating, Morningglory: 10
[8]; [17]
  Plant response rating, Morningglory: 85
[9]; [14]
  Plant response rating, Pigweed: 100
[9]; [15]
  Plant response rating, Pigweed: 100
[9]; [16]
  Plant response rating, Pigweed: 65
[9]; [17]
  Plant response rating, Pigweed: 100
[10]; 16 g ai/ha
  Plant response rating (scale of 0 to 100), Chickweed: 30
[10]; 62 g ai/ha
  Plant response rating (scale of 0 to 100), Chickweed: 40

## CCOC(=O)c1nc(-c2ccc(I)cc2)nc(N)c1Cl [Compound 133]
Soybean (Glycine max); 16 g ai/ha
  Plant response rating (scale of 0 to 100), Soybean: 95
Soybean (Glycine max); 31 g ai/ha
  Plant response rating (scale of 0 to 100), Soybean: 95
Soybean (Glycine max); 62 g ai/ha
  Plant response rating (scale of 0 to 100), Soybean: 100
Soybean (Glycine max)
  Soybean plant response rating: 100
[1]; 16 g ai/ha
  Plant response rating (scale of 0 to 100), Johnsongrass: 70
[1]; 31 g ai/ha
  Plant response rating (scale of 0 to 100), Johnsongrass: 85
[1]; 62 g ai/ha
  Plant response rating (scale of 0 to 100), Johnsongrass: 90
[1]; 125 g ai/ha
  Johnsongrass plant response rating: 95
[2]; 16 g ai/ha
  Plant response rating (scale of 0 to 100), Lambsquarters: 95
[2]; 31 g ai/ha
  Plant response rating (scale of 0 to 100), Lambsquarters: 95
[2]; 62 g ai/ha
  Plant response rating (scale of 0 to 100), Lambsquarters: 95
[2]; 125 g ai/ha
  Lambsquarters plant response rating: 100
[3]; 16 g ai/ha
  Plant response rating (scale of 0 to 100), Bermudagrass: 50
[3]; 31 g ai/ha
  Plant response rating (scale of 0 to 100), Bermudagrass: 85
[3]; 62 g ai/ha
  Bermudagrass plant response rating: 85
[3]; 125 g ai/ha
  Bermudagrass plant response rating: 85
[4]; [14]
  Plant response rating, Velvetleaf: 80
[4]; [15]
  Plant response rating, Velvetleaf: 85
[4]; [16]
  Plant response rating, Velvetleaf: 10
[4]; [17]
  Plant response rating, Velvetleaf: 30
[5]; [14]
  Plant response rating, Barnyardgrass: 10
[5]; [15]
  Plant response rating, Barnyardgrass: 40
[5]; [16]
  Plant response rating, Barnyardgrass: 0
[5]; [17]
  Plant response rating, Barnyardgrass: 15
[6]; [14]
  Plant response rating, Foxtail, Giant: 15
[6]; [15]
  Plant response rating, Foxtail, Giant: 60
[6]; [16]
  Plant response rating, Foxtail, Giant: 0
[6]; [17]
  Plant response rating, Foxtail, Giant: 30
[7]; [14]
  Plant response rating, Crabgrass: 30
[7]; [15]
  Plant response rating, Crabgrass: 55
[7]; [16]
  Plant response rating, Crabgrass: 0
[7]; [17]
  Plant response rating, Crabgrass: 45
[8]; [14]
  Plant response rating, Morningglory: 70
[8]; [15]
  Plant response rating, Morningglory: 85
[8]; [16]
  Plant response rating, Morningglory: 0
[8]; [17]
  Plant response rating, Morningglory: 35
[9]; [14]
  Plant response rating, Pigweed: 80
[9]; [15]
  Plant response rating, Pigweed: 90
[9]; [16]
  Plant response rating, Pigweed: 10
[9]; [17]
  Plant response rating, Pigweed: 65
[10]; 16 g ai/ha
  Plant response rating (scale of 0 to 100), Chickweed: 0
[10]; 31 g ai/ha
  Plant response rating (scale of 0 to 100), Chickweed: 10
[10]; 62 g ai/ha
  Plant response rating (scale of 0 to 100), Chickweed: 20
[10]; 125 g ai/ha, scale 0 to 100 (0 no effect, 100 complete control)
  Chickweed plant response rating: 45

From patent publication US8802597B2, “Herbicidal pyrimidines” (E I du Pont de Nemours and Company, priority 2003, dated 2014)
